Measured values: patent US9833497B2, “Human originated EGF domain proteins and use of the same” (CHENGDU SOURCEBIO LIMITED-LIABILITY COMPANY, priority 2013, dated 2017)

Assays:
Format in all cases: cell-based
E. coli DH5α = experiment: Antibacterial activity: MIC and growth curve against E. coli DH5α in 96-well plate; details: minimal inhibitory concentration against E. coli DH5α; 96-well plate, 5×10^5 CFU/mL, 37° C., judged after 8 h
Outline: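 Log-phase bacteria (OD600 ~0.5) resuspended in LB at 5×10^5 CFU/mL, exposed to recombinant protein at 50, 25, 12.5 μg/mL final in triplicate, 37 °C shaking at 175 rpm. OD600 read every 30 min; MIC is lowest concentration showing no growth.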

E. coli BL21 = experiment: MIC against Gram-negative bacteria: E. coli BL21
Outline: (§1)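 LB broth cultures at McFarland 0.5, spun down, resuspended, diluted to 5×10^5 CFU/mL final. Two-fold serial dilutions of purified human EGF domain proteins, triplicate. 37° C, 175 rpm shaking. Endpoint: no visible growth.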

Pseudomonas aeruginosa = experiment: MIC against Gram-negative bacteria: Pseudomonas aeruginosa
Outline: as §1

Klebsiella pneumonia = experiment: MIC against Gram-negative bacteria: Klebsiella pneumonia
Outline: as §1

Enterobacter cloacae = experiment: MIC against Gram-negative bacteria: Enterobacter cloacae
Outline: as §1

Aeromonas hydrophila = experiment: MIC against Gram-negative bacteria: Aeromonas hydrophila
Outline: as §1

Citrobacter diversus = experiment: MIC against Gram-negative bacteria: Citrobacter diversus
Outline: as §1

Moraxella catarrhalis = experiment: MIC against Gram-negative bacteria: Moraxella catarrhalis
Outline: as §1

Proteus mirabilis = experiment: MIC against Gram-negative bacteria: Proteus mirabilis
Outline: as §1

Proteus vulgaris = experiment: MIC against Gram-negative bacteria: Proteus vulgaris
Outline: as §1

Serratia marcescens = experiment: MIC against Gram-negative bacteria: Serratia marcescens
Outline: as §1

[1] = E. coli BL21, 10 h cultivation at 37° C., 5×10^5 CFU/mL
[2] = P. aeruginosa, 10 h cultivation at 37° C., 5×10^5 CFU/mL
[3] = K. pneumonia, 10 h cultivation at 37° C., 5×10^5 CFU/mL
[4] = E. cloacae, 10 h cultivation at 37° C., 5×10^5 CFU/mL
[5] = A. hydrophila, 10 h cultivation at 37° C., 5×10^5 CFU/mL
[6] = C. diversus, 10 h cultivation at 37° C., 5×10^5 CFU/mL
[7] = M. catarrhalis, 10 h cultivation at 37° C., 5×10^5 CFU/mL
[8] = P. mirabilis, 10 h cultivation at 37° C., 5×10^5 CFU/mL
[9] = P. vulgaris, 10 h cultivation at 37° C., 5×10^5 CFU/mL
[10] = S. marcescens, 10 h cultivation at 37° C., 5×10^5 CFU/mL
[11] = 96-well plate, 5×10^5 CFU/mL, 37° C., 10 h
[12] = E. coli BL21, 96-well plate, 5×10^5 CFU/mL, 37° C., 10 h
[13] = Pseudomonas aeruginosa, 96-well plate, 5×10^5 CFU/mL, 37° C., 10 h
[14] = Klebsiella pneumonia, 96-well plate, 5×10^5 CFU/mL, 37° C., 10 h
[15] = Enterobacter cloacae, 96-well plate, 5×10^5 CFU/mL, 37° C., 10 h
[16] = Aeromonas hydrophila, 96-well plate, 5×10^5 CFU/mL, 37° C., 10 h
[17] = Citrobacter diversus, 96-well plate, 5×10^5 CFU/mL, 37° C., 10 h
[18] = Moraxella catarrhalis, 96-well plate, 5×10^5 CFU/mL, 37° C., 10 h
[19] = Proteus mirabilis, 96-well plate, 5×10^5 CFU/mL, 37° C., 10 h
[20] = Proteus vulgaris, 96-well plate, 5×10^5 CFU/mL, 37° C., 10 h
[21] = Serratia marcescens, 96-well plate, 5×10^5 CFU/mL, 37° C., 10 h
[22] = E. coli BL21, 10 h cultivation at 37° C.
[23] = P. aeruginosa, 10 h cultivation at 37° C.
[24] = K. pneumonia, 10 h cultivation at 37° C.
[25] = E. cloacae, 10 h cultivation at 37° C.
[26] = A. hydrophila, 10 h cultivation at 37° C.
[27] = C. diversus, 10 h cultivation at 37° C.
[28] = M. catarrhalis, 10 h cultivation at 37° C.
[29] = P. mirabilis, 10 h cultivation at 37° C.
[30] = P. vulgaris, 10 h cultivation at 37° C.
[31] = S. marcescens, 10 h cultivation at 37° C.

PRT788 (WGPHCTSRCQCKNGALCNPITGACHCAAGFRGWRCE; listed as Homo sapiens)
50 µg/mL: MIC (E. coli DH5α) | MIC (μg/mL) P. aeruginosa (Pseudomonas aeruginosa; [2]) | MIC (μg/mL) C. diversus (Citrobacter diversus; [6]) | MIC (μg/mL) P. vulgaris (Proteus vulgaris; [9]) | MIC (μg/mL) S. marcescens (Serratia marcescens; [10])
12.5 µg/mL: MIC (μg/mL) E. cloacae (Enterobacter cloacae; [4]) | MIC (μg/mL) P. mirabilis (Proteus mirabilis; [8])
100 µg/mL: MIC (μg/mL) E. coli BL21 (E. coli BL21; [1])
25 µg/mL: MIC (μg/mL) K. pneumonia (Klebsiella pneumonia; [3]) | MIC (μg/mL) A. hydrophila (Aeromonas hydrophila; [5]) | MIC (μg/mL) M. catarrhalis (Moraxella catarrhalis; [7])

PRT603 (CHCHPQGSKDTVCDQVTGQCPCHGEVSGRRCDRCLAGYFGFPSCHP; listed as Homo sapiens)
25 µg/mL: MIC (E. coli DH5α) | MIC P. aeruginosa (Pseudomonas aeruginosa; [11]) | MIC E. cloacae (Enterobacter cloacae; [11])
12.5 µg/mL: MIC K. pneumonia (Klebsiella pneumonia; [11]) | MIC C. diversus (Citrobacter diversus; [11]) | MIC P. mirabilis (Proteus mirabilis; [11]) | MIC S. marcescens (Serratia marcescens; [11])
50 µg/mL: MIC E. coli BL21 (E. coli BL21; [11]) | MIC A. hydrophila (Aeromonas hydrophila; [11]) | MIC M. catarrhalis (Moraxella catarrhalis; [11]) | MIC P. vulgaris (Proteus vulgaris; [11])

PRT530 (CSCDPEHADGCEQGSGRCHCKPNFHGDNCEKCAIGYYNFPFCLR; listed as Homo sapiens)
50 µg/mL: MIC (E. coli DH5α) | MIC against K. pneumonia (Klebsiella pneumonia; [11]) | MIC against M. catarrhalis (Moraxella catarrhalis; [11])
25 µg/mL: MIC against P. aeruginosa (Pseudomonas aeruginosa; [11]) | MIC against E. cloacae (Enterobacter cloacae; [11]) | MIC against C. diversus (Citrobacter diversus; [11]) | MIC against P. mirabilis (Proteus mirabilis; [11]) | MIC against S. marcescens (Serratia marcescens; [11])
12.5 µg/mL: MIC against E. coli BL21 (E. coli BL21; [11]) | MIC against A. hydrophila (Aeromonas hydrophila; [11]) | MIC against P. vulgaris (Proteus vulgaris; [11])

PRT88 (HRMDQQCPRGWWGSPTCGPCNCDVHKGFDPNCN; listed as Homo sapiens)
12.5 µg/mL: MIC (μg/mL) E. coli BL21 (E. coli BL21; [12]) | MIC (μg/mL) E. cloacae (Enterobacter cloacae; [15]) | MIC (μg/mL) A. hydrophila (Aeromonas hydrophila; [16]) | MIC (μg/mL) C. diversus (Citrobacter diversus; [17]) | MIC (μg/mL) M. catarrhalis (Moraxella catarrhalis; [18]) | MIC (μg/mL) S. marcescens (Serratia marcescens; [21])
25 µg/mL: MIC (E. coli DH5α) | MIC (μg/mL) P. vulgaris (Proteus vulgaris; [20])
50 µg/mL: MIC (μg/mL) P. aeruginosa (Pseudomonas aeruginosa; [13]) | MIC (μg/mL) P. mirabilis (Proteus mirabilis; [19])
100 µg/mL: MIC (μg/mL) K. pneumonia (Klebsiella pneumonia; [14])

PRT38 (VRDLCGQRTTDACEQLCDPETGECSCHEGYAPDPVHRHLCV; listed as Homo sapiens)
50 µg/mL: MIC (E. coli DH5α) | MIC (μg/mL) K. pneumonia (Klebsiella pneumonia; [14]) | MIC (μg/mL) C. diversus (Citrobacter diversus; [17]) | MIC (μg/mL) P. vulgaris (Proteus vulgaris; [20]) | MIC (μg/mL) S. marcescens (Serratia marcescens; [21])
100 µg/mL: MIC (μg/mL) A. hydrophila (Aeromonas hydrophila; [16])
25 µg/mL: MIC (μg/mL) E. coli BL21 (E. coli BL21; [12]) | MIC (μg/mL) E. cloacae (Enterobacter cloacae; [15]) | MIC (μg/mL) P. mirabilis (Proteus mirabilis; [19])
12.5 µg/mL: MIC (μg/mL) P. aeruginosa (Pseudomonas aeruginosa; [13]) | MIC (μg/mL) M. catarrhalis (Moraxella catarrhalis; [18])

PRT525 (CNCNRDGTEPGVCDPGTGACLCKENVEGTECNVCREGSFHLDPANLKGCTS; listed as Homo sapiens)
12.5 µg/mL: MIC against E. coli BL21 (E. coli BL21; [11]) | MIC against A. hydrophila (Aeromonas hydrophila; [11]) | MIC against P. vulgaris (Proteus vulgaris; [11])
50 µg/mL: MIC against K. pneumonia (Klebsiella pneumonia; [11]) | MIC against M. catarrhalis (Moraxella catarrhalis; [11])
25 µg/mL: MIC (E. coli DH5α) | MIC against P. aeruginosa (Pseudomonas aeruginosa; [11]) | MIC against E. cloacae (Enterobacter cloacae; [11]) | MIC against C. diversus (Citrobacter diversus; [11]) | MIC against P. mirabilis (Proteus mirabilis; [11]) | MIC against S. marcescens (Serratia marcescens; [11])

PRT1296 (GCEPCHKKVCAHGTCQPSSQAGFTCECQEGWMGPLCD; listed as Homo sapiens)
12.5 µg/mL: MIC against E. coli BL21 (E. coli BL21; [12]) | MIC against M. catarrhalis (Moraxella catarrhalis; [18])
100 µg/mL: MIC against A. hydrophila (Aeromonas hydrophila; [16])
50 µg/mL: MIC (E. coli DH5α) | MIC against K. pneumonia (Klebsiella pneumonia; [14]) | MIC against C. diversus (Citrobacter diversus; [17]) | MIC against P. vulgaris (Proteus vulgaris; [20])
25 µg/mL: MIC against P. aeruginosa (Pseudomonas aeruginosa; [13]) | MIC against E. cloacae (Enterobacter cloacae; [15]) | MIC against P. mirabilis (Proteus mirabilis; [19]) | MIC against S. marcescens (Serratia marcescens; [21])

PRT1001 (EMTACHSGPCLNGGSCNPSPGGYYCTCPPSHTGPQCQ; listed as Homo sapiens)
25 µg/mL: MIC (Enterobacter cloacae; [25]) | MIC (Moraxella catarrhalis; [28]) | MIC (Proteus vulgaris; [30])
12.5 µg/mL: MIC (E. coli DH5α) | MIC (Pseudomonas aeruginosa; [23]) | MIC (Aeromonas hydrophila; [26]) | MIC (Proteus mirabilis; [29])
50 µg/mL: MIC (E. coli BL21; [22]) | MIC (Klebsiella pneumonia; [24]) | MIC (Citrobacter diversus; [27]) | MIC (Serratia marcescens; [31])

PRT910 (EIDECLSHPCQNGGTCLDLPNTYKCSCPRGTQGVHCE; listed as Homo sapiens)
25 µg/mL: MIC (E. coli BL21; [22]) | MIC (Klebsiella pneumonia; [24]) | MIC (Citrobacter diversus; [27]) | MIC (Proteus mirabilis; [29]) | MIC (Proteus vulgaris; [30]) | MIC (Serratia marcescens; [31])
50 µg/mL: MIC (E. coli DH5α) | MIC (Enterobacter cloacae; [25])
12.5 µg/mL: MIC (Pseudomonas aeruginosa; [23]) | MIC (Aeromonas hydrophila; [26]) | MIC (Moraxella catarrhalis; [28])

PRT879 (TLKQCASAPCRNGGVCREGWNRFICDCIGTGFLGRVCE; listed as Homo sapiens)
25 µg/mL: MIC (E. coli DH5α) | MIC (μg/mL) E. cloacae (Enterobacter cloacae; [4]) | MIC (μg/mL) C. diversus (Citrobacter diversus; [6]) | MIC (μg/mL) S. marcescens (Serratia marcescens; [10])
12.5 µg/mL: MIC (μg/mL) P. aeruginosa (Pseudomonas aeruginosa; [2]) | MIC (μg/mL) K. pneumonia (Klebsiella pneumonia; [3]) | MIC (μg/mL) A. hydrophila (Aeromonas hydrophila; [5]) | MIC (μg/mL) M. catarrhalis (Moraxella catarrhalis; [7]) | MIC (μg/mL) P. mirabilis (Proteus mirabilis; [8]) | MIC (μg/mL) P. vulgaris (Proteus vulgaris; [9])
50 µg/mL: MIC (μg/mL) E. coli BL21 (E. coli BL21; [1])

PRT259 (GGCHTDALCSYVGPGQSRCTCKLGFAGDGYQC; listed as Homo sapiens)
12.5 µg/mL: MIC (E. coli DH5α) | MIC (μg/mL) K. pneumonia (Klebsiella pneumonia; [3]) | MIC (μg/mL) A. hydrophila (Aeromonas hydrophila; [5]) | MIC (μg/mL) M. catarrhalis (Moraxella catarrhalis; [7])
50 µg/mL: MIC (μg/mL) P. aeruginosa (Pseudomonas aeruginosa; [2]) | MIC (μg/mL) E. cloacae (Enterobacter cloacae; [4]) | MIC (μg/mL) C. diversus (Citrobacter diversus; [6]) | MIC (μg/mL) P. vulgaris (Proteus vulgaris; [9])
25 µg/mL: MIC (μg/mL) E. coli BL21 (E. coli BL21; [1]) | MIC (μg/mL) P. mirabilis (Proteus mirabilis; [8]) | MIC (μg/mL) S. marcescens (Serratia marcescens; [10])
